| SMILES | melting point |
| --- | --- |
| Cc1cc(N(C)Cc2ccc(-c3ccc(Cl)cc3)nc2)ccc1OCC(=O)O | 174 to 176 °C |
| CC(C)(Cc1ccccc1)C(NC(=O)c1ccc(Cl)cc1)NC(=N[N+](=O)[O-])Nc1cccnc1 (centres undefined) | 205 to 207 °C |
| COc1ccc(-c2n[nH]c(=O)cc2-c2ccc(OC)c(F)c2)cc1 | 213 °C |
| Cn1c(COc2ccc(C=O)cc2)nc2cccnc21 | 124 to 125 °C |
| N#CC12CC3CC(CC(Cl)(C3)C1)C2 | 156 to 157 °C |
| O=C(Nc1c([N+](=O)[O-])cnn1-c1c(Cl)cc(C(F)(F)F)c(Cl)c1Cl)C(Cl)Cl | 112 to 120 °C |
| CC(C)(C)CC(C)(C)C(CCC(=O)OO)CC(=O)OO (centres undefined) | 60 to 62 °C |
| O=C1NC(=O)C(Nc2cccc3ccccc23)S1 (centres undefined) | 195 to 197 °C |
| CCSSCS(C)(=O)=O | 34.6 to 36.3 °C |
| NCCCc1c[nH]c2ccc3c(=O)[nH]ccc3c12 | 225 to 230 °C |
| CCOc1ccccc1N1CCN(Cc2nc3ccccc3[nH]2)CC1 | 95 to 100 °C |
| CCCCCCCCc1ccc(OCC(=O)Cn2cccn2)cc1 | 85 to 87 °C |
| C#CCN(Cc1ccc2nc(C)[nH]c(=O)c2c1)c1ccc(C(=O)NC(COC(C)=O)c2cccc([N+](=O)[O-])c2)cc1 (centres undefined) | 133 to 135 °C |
| CC(C)OC1CCC(=O)N1S(=O)(=O)C=Cc1ccc([N+](=O)[O-])cc1 (centres undefined) | 178 to 179 °C |
| C=C1CCCC2CCC3C(CCC4(C)C3C(C=O)C35OCCOC43OCCO5)C12C (centres undefined) | 192 °C |
| N#CCc1cccn1Cc1ccccc1 | 62 to 63 °C |
| CC(=O)c1ccc(Nc2nnc(Cc3ccncc3)c3ccccc23)cc1O | 234 to 236 °C |
| CN(CCN)CCNC(=O)c1nc(Br)c(N)nc1N | 148 to 150 °C |
| O=P(OC1=Nc2ccc(Cl)cc2C(c2ccccc2Cl)=NC1)(N1CCOCC1)N1CCOCC1 | 185 to 187 °C |
| CCCCCCCCCCCCc1nnn(CC(=O)Nc2ccc(F)cc2F)n1 | 103 to 106 °C |
| CC(c1ccc(-c2ccccc2)c(F)c1)c1csc(NCCc2ccccc2)n1 (centres undefined) | 74.5 to 75.5 °C |
| OC[C@H]1OC[C@@H](n2cnc3cc(Cl)c(Cl)cc32)[C@H](O)[C@@H]1O | 160 to 162 °C |

| SMILES | melting point |
| --- | --- |
| Nc1nc2c(s1)CCN(CC=Cc1ccccc1[N+](=O)[O-])CC2 | 125 to 128 °C |
| c1ccc2c(c1)CCC(n1ccnc1)C2 (centres undefined) | 93 to 95 °C |
| N#Cc1cccc(CN2C(=O)c3ccccc3C2=O)n1 | 205 °C |
| CN1C(=O)CC[C@]2(C)c3ccc(SC(c4ccccc4)c4ccccc4)cc3CC[C@@H]12 | 102 to 104 °C |
| O=C(O)C1CSC(c2cccnc2)N1 (centres undefined) | 135 to 140 °C |
| CCCCc1c(Cl)ncnc1Cl | 62 to 63 °C |
| O=C(O)CCc1nc(-c2ccccc2)nc2ccccc12 | 159 °C |
| Cn1c(=O)c2[nH]c(C=Cc3cccc(N)c3)nc2n(C)c1=O | > 300 °C |
| COc1ccc(-c2cnc3c(-c4cc(-c5ccccc5)cs4)cnn3c2O)cc1Br | > 300 °C |
| CC(CN1C(=O)c2ccccc2C1=O)C(=NO)n1nc(C(C)(C)C)cc1N (centres undefined) | 198 to 199 °C |
| Nc1nc(N)c(NC=O)c(Cl)n1 | > 300 °C |
| Cc1cc(SC2=C(O)CC(C3CCCC3)(C3CCCC3)OC2=O)c(C(C)(C)C)cc1NS(=O)(=O)c1ccc(C(F)(F)F)cn1 | 127 to 129 °C |
| CC(O)C#Cc1ccc(Cl)cc1 (centres undefined) | 71 to 72 °C |
| NC(=O)C1(c2ccn(C(CC(=O)OCc3ccccc3)C(=O)NC(CO)Cc3ccccc3)c2)C=CC(c2ccccc2)=CC1 (centres undefined) | 192 to 194 °C |
| CC(C)c1cc(Cl)cc2c1OC(C(F)(F)F)C(C(=O)O)=C2 (centres undefined) | 185 to 189 °C |
| Cc1nccn1-c1nc(-c2ccc(Cl)cc2)c(CCCN2C(=O)COC2=O)o1 | 152 to 153 °C |
| CCCCOc1ccc(C#CC2(O)CN3CCC2CC3)cn1 (centres undefined) | 149 to 151 °C |
| CS(=O)(=O)c1ccc(Oc2ccc(Br)cc2)nc1 | 125 to 126 °C |
| CCCc1ncc(C(=O)OCC)c(NCc2ccc(-c3ccccc3-c3nnnn3C(c3ccccc3)(c3ccccc3)c3ccccc3)cc2)n1 | 132 to 133 °C |
| CCCCC[C@H](O)c1ccc(Br)cc1 | 70 to 71 °C |
| COc1ccc(CN2C(=O)C(O)(c3cc4c(C)noc4cc3O)c3ccccc32)cc1 (centres undefined) | 199 to 201 °C |

Results, then the compound that gave them:

| melting point | SMILES |
| --- | --- |
| 128 °C | CCOC(=O)N1CCC(CCCOc2ccc(C3=NCCCO3)cc2)CC1 |
| 158 to 159 °C | CN(C)CCN1C(=O)C(NC(=O)c2ccc(NS(C)(=O)=O)cc2)C(C)(C)SC1=S (centres undefined) |
| 52 to 53 °C | COC(=O)c1ccc(C(C)O)cc1 (single isomer, unassigned; (+)) |
| 123 to 124 °C | C=C(CN(C)C)c1ccc(NC(=O)NC)cc1 |
| 43 to 45 °C | COC(=O)c1ccc2c(c1)OCCO2 |
| 143 to 144 °C | CCOC(=O)CCCCc1oc(=O)[nH]c1-c1ccc(Cl)cc1 |
| 152 to 153 °C | CCCCCCC(CC(=O)Nc1cc(C(N)=O)ccc1C(C)(C)C)c1ccc(OC)cc1OC (centres undefined) |
| 155 to 157 °C | CCCP(=O)(O)CC(=O)CNCc1ccccc1 |
| 65 to 66 °C | CCNc1ccc(Cl)nc1 |
| 161 to 164 °C | CN(c1cc(Cl)ccc1C(=O)O)S(C)(=O)=O |
| 128 to 130 °C | COc1cccc(-c2nc(-c3ccccc3COC(=O)c3ccccc3)n[nH]2)c1 |
| 195 to 196 °C | Oc1ccc2c(c1)C(n1cc[nH]c1=S)CCC2 (centres undefined) |
| 80 to 82 °C | CCOC(=O)c1cc2cc([Si](C)(C)C)ccc2n1Cc1cccc(F)c1 |
| 108 to 109 °C | CN1C(=S)Cc2ccccc21 |
| 189 to 191 °C | CS(=O)(=O)Nc1cc(CC(=O)O)cc2c1NC(C(F)(F)F)CC2 (centres undefined) |
| 166 to 168 °C | COC(=O)C1CC(C#N)(c2cccc3ccccc23)CCC1=O (centres undefined) |

| melting point | SMILES |
| --- | --- |
| 179 to 181 °C | COc1c(Cl)ccc(-c2cc(N)c(Cl)c(C(=O)NOCc3nnsc3Cl)n2)c1F |
| 106 °C | CC(=O)n1ccn(C(C)=O)c1=O |
| 71 to 72 °C | CN(CC1CCCCC1)C(=O)c1ccc2nonc2c1 |
| 153 to 155 °C | CCCCc1ncc(C(=O)OC)c(=O)[nH]1 |
| 275 to 278 °C | CCOC(=O)c1c[nH]c2nc(NCc3ccccc3)nn2c1=O |
| 160 to 180 °C | C[C@@H]([C@H]1CO1)[C@](O)(Cn1cncn1)c1ccc(F)cc1F (relative stereo) |
| 76.5 to 77.5 °C | CC(=O)OCC1=C(c2ccccc2)C(=O)N(C(C)(C)C(=O)Nc2cccc(C(F)(F)F)c2)CO1 |
| 134 to 136 °C | COc1cn2nc(Cl)ccc2n1 |
| 224 to 226 °C | CCC(CC)NC1=NS(=O)(=O)c2ccc(Cl)cc2N1 |
| 118 to 120 °C | CC(C)n1nc(-c2sc(C(=O)NC3CC3)nc2-c2cccc(Cl)c2)ccc1=O |
| 162 to 163 °C | CCOc1ccc(C2=NN(C(=O)c3cccc(N)c3)CCC2)cc1OCC |
| 200 to 203 °C | CC(=O)c1cc2c(cc1F)OC(C)(C)[C@@H](O)[C@@H]2NC(=O)c1ccc(F)cc1 (relative stereo) |
| 183 to 185 °C | NS(=O)(=O)c1nc2ccc(OCC(O)CO)cc2s1 (centres undefined) |
| 189 to 190 °C | CN(C)CC1CCCCN1CC(=O)N1c2ccccc2C(=O)Nc2cccnc21 (centres undefined) |
| 180 to 182 °C | CN1C(=O)CC(C(=O)Nc2ccc(F)cc2)C(=O)c2cc(F)ccc21 (centres undefined) |

From a melting point compilation (Tetko et al.; mined from patent text by program, amines drawn as free bases though some values may be those of a salt)
